Reference: EP4740948A1 (Dong Wha Pharm. Co., Ltd., priority 2023, dated 2025)

What was measured:
G401 cells = assay: Cancer cell proliferation inhibition (Cell Counting Kit-8), rhabdoid tumor cell line; assay type: cell-based; conditions: Homo sapiens, G-401, 264 h, 1000 nM, cultured seven to 11 days; read-out: % inhibition rate G401
From the text: (§1) Among solid cancer cells, in G401 cells in which expression of SMARCB1, which is a member of switch/sucrosenon-fermenting (SWI/SNF), is defective as a cell line of a rhabdoid tumor in which a therapeutic effect may be expected through dual inhibition of EZH1/2, and MKN-45 cells in which expression of ARID1A, which is a member of SWI/SNF, is defective as a gastric cancer cell line, a proliferation inhibitory ability of the 1,3-benzodioxole derivative compounds represented by chemical formula I of the present invention was evaluated.
(§2) Each cell line (G401 cell, MKN-45 cell, Lovo cell, SW-13 cell, MIA-PaCa-2, NCI-H1299) of Table 2 below was cultured using RPMI1640, McCoy's 5a, L-15 or DMEM containing 10% fetal bovine serum, and the cells were seeded into wells of a 96-well culture dish at 100 to 1,000 cells each, and a test substance 1000 nM was cultured for seven to 11 days after drug treatment. After the culture, the cells were measured according to a manufacturer's instructions using Cell Counting Kit-8, and a cell proliferation inhibitory effect (% inhibition rate) of the test substance was obtained.
(§3) The cell proliferation inhibitory effect (% inhibition rate) of the test substance was calculated using a following equation. % inhibition rate = {1−(testgroup/controlgroup)} X 100 [formula]

EZH2 = EZH2 (Homo sapiens, UniProt Q15910); assay: AlphaLISA enzyme activity inhibition, EZH2; assay type: biochemical; conditions: 5nM test substance
Procedure: (§4) In order to confirm the EZH1 and/or EZH2 activity inhibitory effect of the 1,3-benzodioxole derivative compounds represented by chemical formula I of the present invention, the activity was measured using an AlphaLISA test method. The test substance dissolved in dimethylsulfoxide (DMSO) was diluted in a test solution (20 mM Tris pH 8.0, 0.1% BSA, 0.01% Triton X-100, 0.5 mM DTT) according to a final treatment concentration (5 nM or 10 nM) and mixed with EZH1 and EZH2, respectively, and then histone H3 peptide and S-adenosylmethionine (SAM) were added to initiate an enzyme reaction. An acceptor bead was added thereto after reaction for two hours and subjected to an additional reaction for one hour, after which a donor bead was added thereto. After an additional reaction for 30 minutes, the reaction was completed. An activity was measured using the Magellan program on a Spark10M instrument. DMSO was used as a control group, an inhibition rate of enzyme activity was calculated using a following equation, and the results thereof are shown in Table 1 below. [formula]

NCI-H1299 cells = assay: Cancer cell proliferation inhibition (Cell Counting Kit-8), lung cancer cell line; assay type: cell-based; conditions: Homo sapiens, NCI-H1299, 264 h, 1000 nM, cultured seven to 11 days; read-out: % inhibition rate NCI-H129 9
Procedure: (§5) In addition, as one example of solid cancer in which an overexpression of EZH2 and a consequent disease association therebetween is reported, a proliferation inhibitory activity of the 1,3-benzodioxole derivative compounds represented by chemical formula I of the present invention was evaluated in Lovo cells as a colorectal cancer cell line, SW-13 cells as an adrenal cancer cell line, MIA-PaCa-2 cells as a pancreatic cancer cell line, and NCI-H1299 cells as a lung cancer cell line.
as §2, §3

EZH1 = EZH1 (Homo sapiens, UniProt Q92800); assay: AlphaLISA enzyme activity inhibition, EZH1; assay type: biochemical; conditions: 5nM test substance
Procedure: as §4

MIA-PaCa-2 cells = assay: Cancer cell proliferation inhibition (Cell Counting Kit-8), pancreatic cancer cell line; assay type: cell-based; conditions: Homo sapiens, MIA PaCa-2, 264 h, 1000 nM, cultured seven to 11 days; read-out: % inhibition rate MIA-Paca2
Procedure: as §5, §2, §3

MKN-45 cells = assay: Cancer cell proliferation inhibition (Cell Counting Kit-8), gastric cancer cell line; assay type: cell-based; conditions: Homo sapiens, MKN-45, 264 h, 1000 nM, cultured seven to 11 days; read-out: % inhibition rate MKN -45
From the text: as §1, §2, §3

SW-13 cells = assay: Cancer cell proliferation inhibition (Cell Counting Kit-8), adrenal cancer cell line; assay type: cell-based; conditions: Homo sapiens, SW13, 264 h, 1000 nM, cultured seven to 11 days; read-out: % inhibition rate SW-13
Procedure: as §5, §2, §3

Lovo cells = assay: Cancer cell proliferation inhibition (Cell Counting Kit-8), colorectal cancer cell line; assay type: cell-based; conditions: Homo sapiens, LoVo, 264 h, 1000 nM, cultured seven to 11 days; read-out: % inhibition rate LoVo
Procedure: as §5, §2, §3

EZH1, sequence (Q92800 whole entry, species assumed): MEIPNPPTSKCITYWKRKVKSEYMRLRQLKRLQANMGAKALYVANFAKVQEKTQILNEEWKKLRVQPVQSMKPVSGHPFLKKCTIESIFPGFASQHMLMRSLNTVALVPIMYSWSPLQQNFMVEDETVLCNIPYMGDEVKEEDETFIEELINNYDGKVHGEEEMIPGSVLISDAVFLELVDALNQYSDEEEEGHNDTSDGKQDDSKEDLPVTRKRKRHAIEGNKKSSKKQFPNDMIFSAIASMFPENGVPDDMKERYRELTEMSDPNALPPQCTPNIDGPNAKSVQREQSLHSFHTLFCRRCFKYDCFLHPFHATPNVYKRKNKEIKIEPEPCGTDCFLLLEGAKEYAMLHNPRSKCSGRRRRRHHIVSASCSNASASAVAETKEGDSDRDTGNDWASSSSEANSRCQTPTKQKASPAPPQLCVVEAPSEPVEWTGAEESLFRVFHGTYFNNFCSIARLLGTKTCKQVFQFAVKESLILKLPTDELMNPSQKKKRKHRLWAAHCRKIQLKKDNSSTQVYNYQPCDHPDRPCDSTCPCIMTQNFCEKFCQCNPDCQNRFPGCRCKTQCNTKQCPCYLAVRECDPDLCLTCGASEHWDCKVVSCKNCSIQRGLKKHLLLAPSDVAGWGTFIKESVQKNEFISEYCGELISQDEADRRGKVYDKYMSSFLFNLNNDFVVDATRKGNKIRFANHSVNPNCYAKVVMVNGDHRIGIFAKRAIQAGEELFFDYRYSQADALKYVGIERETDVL
EZH1, sequence (O75530 whole entry partner, species assumed): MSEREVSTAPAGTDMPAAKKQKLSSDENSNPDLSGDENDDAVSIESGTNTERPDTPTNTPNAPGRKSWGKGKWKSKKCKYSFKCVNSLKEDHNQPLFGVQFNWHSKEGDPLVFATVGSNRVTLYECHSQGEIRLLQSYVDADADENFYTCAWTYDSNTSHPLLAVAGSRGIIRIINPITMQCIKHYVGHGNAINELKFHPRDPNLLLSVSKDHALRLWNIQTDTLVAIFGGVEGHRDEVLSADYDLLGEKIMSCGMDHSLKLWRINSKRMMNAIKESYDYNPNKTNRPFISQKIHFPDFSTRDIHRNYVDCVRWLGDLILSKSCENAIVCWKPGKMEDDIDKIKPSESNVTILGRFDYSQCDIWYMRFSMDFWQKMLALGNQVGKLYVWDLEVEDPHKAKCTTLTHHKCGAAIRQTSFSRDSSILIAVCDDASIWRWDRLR
EZH1, sequence (Q15022 whole entry partner, species assumed): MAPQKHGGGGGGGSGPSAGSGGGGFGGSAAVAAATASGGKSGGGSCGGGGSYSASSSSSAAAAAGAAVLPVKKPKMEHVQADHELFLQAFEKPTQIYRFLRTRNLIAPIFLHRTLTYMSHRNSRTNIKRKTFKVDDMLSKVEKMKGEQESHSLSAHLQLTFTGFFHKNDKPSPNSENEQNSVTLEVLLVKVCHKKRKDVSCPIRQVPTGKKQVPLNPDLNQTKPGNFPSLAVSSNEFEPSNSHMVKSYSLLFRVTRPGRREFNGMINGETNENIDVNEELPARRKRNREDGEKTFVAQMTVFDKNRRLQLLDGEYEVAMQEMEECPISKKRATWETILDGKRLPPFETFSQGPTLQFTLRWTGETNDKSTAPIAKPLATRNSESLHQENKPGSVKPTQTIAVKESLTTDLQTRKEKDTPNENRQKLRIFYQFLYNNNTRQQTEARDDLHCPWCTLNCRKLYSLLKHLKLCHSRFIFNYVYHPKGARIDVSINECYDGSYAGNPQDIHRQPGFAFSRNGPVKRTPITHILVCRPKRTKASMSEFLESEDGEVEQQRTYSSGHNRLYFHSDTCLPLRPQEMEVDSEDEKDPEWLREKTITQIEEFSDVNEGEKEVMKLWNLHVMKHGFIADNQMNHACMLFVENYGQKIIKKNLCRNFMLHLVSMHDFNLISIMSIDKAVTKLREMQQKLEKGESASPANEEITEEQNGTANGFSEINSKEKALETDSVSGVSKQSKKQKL
EZH2, sequence (Q15910 whole entry, species assumed): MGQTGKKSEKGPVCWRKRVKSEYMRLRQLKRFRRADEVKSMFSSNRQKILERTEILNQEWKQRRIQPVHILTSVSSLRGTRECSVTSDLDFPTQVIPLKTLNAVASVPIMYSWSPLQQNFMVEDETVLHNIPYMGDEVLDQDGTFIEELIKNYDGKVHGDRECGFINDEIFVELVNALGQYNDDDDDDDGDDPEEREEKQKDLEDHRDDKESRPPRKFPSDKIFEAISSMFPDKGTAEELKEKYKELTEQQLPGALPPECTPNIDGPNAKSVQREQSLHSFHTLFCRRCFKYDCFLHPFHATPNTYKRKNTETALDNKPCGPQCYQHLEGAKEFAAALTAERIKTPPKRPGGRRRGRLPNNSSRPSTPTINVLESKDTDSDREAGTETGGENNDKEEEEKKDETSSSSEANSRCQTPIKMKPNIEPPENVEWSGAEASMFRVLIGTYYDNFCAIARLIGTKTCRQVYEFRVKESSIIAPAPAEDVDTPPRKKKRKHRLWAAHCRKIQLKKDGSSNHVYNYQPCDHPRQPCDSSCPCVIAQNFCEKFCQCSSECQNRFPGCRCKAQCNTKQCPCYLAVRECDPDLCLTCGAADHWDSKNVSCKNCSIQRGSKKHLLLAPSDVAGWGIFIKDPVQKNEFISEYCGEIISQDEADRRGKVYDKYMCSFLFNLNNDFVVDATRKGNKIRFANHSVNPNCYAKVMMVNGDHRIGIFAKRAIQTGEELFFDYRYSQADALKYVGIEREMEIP
EZH2, sequence (O75530 whole entry partner, species assumed): as the sequence (O75530 whole entry partner, species assumed) above
EZH2, sequence (Q15022 whole entry partner, species assumed): as the sequence (Q15022 whole entry partner, species assumed) above

inhibition at 0.005 µM (EZH2) [%] | inhibition at 0.005 µM (EZH1) [%] | Compound | inhibition at 1 µM (G401 cells) [%] | inhibition at 1 µM (NCI-H1299 cells) [%] | inhibition at 1 µM (MIA-PaCa-2 cells) [%] | inhibition at 1 µM (MKN-45 cells) [%] | inhibition at 1 µM (SW-13 cells) [%] | inhibition at 1 µM (Lovo cells) [%]
99.5 | 95.1 | CSc1cc(C)[nH]c(=O)c1CNC(=O)c1cc(-c2cnc(N3CCCC3)nc2)c2c(c1C)OC(C)([C@H]1CC[C@H](N(C)C)CC1)O2 (relative stereo) [Compound 5, 2-(trans-4-(dimethylamino)cyclohexyl)-2,4-dimethyl-N-((6-methyl-4-(methylthio)-2-oxo-1,2-dihydropyridin-3-yl)methyl)-7-(2-(pyrrolidin-1-yl)pyrimidin-5-yl)benzo[d][1,3]dioxole-5-carboxamide] | 30 to 70 | ≤ 30 | ≤ 30 | ≤ 30 | 30 to 70 | 30 to 70
98.2 | 86.7 | CSc1cc(C)[nH]c(=O)c1CNC(=O)c1cc(-c2ccc(CN3CCOCC3)cc2)c2c(c1C)OC(C)([C@H]1CC[C@H](N(C)C)CC1)O2 (relative stereo) [Compound 6, 2-(trans-4-(dimethylamino)cyclohexyl)-2,4-dimethyl-N-((6-methyl-4-(methylthio)-2-oxo-1,2-dihydropyridin-3-yl)methyl)-7-(4-(morpholinomethyl)phenyl)benzo[d][1,3]dioxole-5-carboxamide] | 30 to 70 | ≤ 30 | ≤ 30 | ≤ 30 | 30 to 70 | 30 to 70
96 | 81.4 | CSc1cc(C)[nH]c(=O)c1CNC(=O)c1cc(-c2ccc3c(ccn3C)c2)c2c(c1C)OC(C)([C@H]1CC[C@H](N(C)C)CC1)O2 (relative stereo) [Compound 7, 2-(trans-4-(dimethylamino)cyclohexyl)-2,4-dimethyl-7-(1-methyl-1H-indol-5-yl)-N-((6-methyl-4-(methylthio)-2-oxo-1,2-dihydropyridin-3-yl)methyl)benzo[d][1,3]dioxole-5-carboxamide] | 30 to 70 | ≤ 30 | ≤ 30 | 30 to 70 | 30 to 70 | 30 to 70
96.1 | 85.6 | CSc1cc(C)[nH]c(=O)c1CNC(=O)c1cc(-c2cnc(N3CCC(F)(F)CC3)nc2)c2c(c1C)OC(C)([C@H]1CC[C@H](N(C)C)CC1)O2 (relative stereo) [Compound 8, 7-(2-(4,4-difluoropiperidin-1-yl)pyrimidin-5-yl)-2-(trans-4-(dimethylamino)cyclohexyl)-2,4-dimethyl-N-((6-methyl-4-(methylthio)-2-oxo-1,2-dihydropyridin-3-yl)methyl)benzo[d][1,3]dioxole-5-carboxamide] | 30 to 70 | ≤ 30 | ≤ 30 | 30 to 70 | 30 to 70 | 30 to 70
98.6 | 86.1 | CSc1cc(C)[nH]c(=O)c1CNC(=O)c1cc(-c2ccc(N3CCOCC3)cc2)c2c(c1C)OC(C)([C@H]1CC[C@H](N(C)C)CC1)O2 (relative stereo) [Compound 9, 2-(trans-4-(dimethylamino)cyclohexyl)-2,4-dimethyl-N-((6-methyl-4-(methylthio)-2-oxo-1,2-dihydropyridin-3-yl)methyl)-7-(4-morpholinophenyl)benzo[d][1,3]dioxole-5-carboxamide] | 30 to 70 | ≤ 30 | ≤ 30 | ≤ 30 | 30 to 70 | 30 to 70
98.7 | 82.8 | CSc1cc(C)[nH]c(=O)c1CNC(=O)c1cc(-c2ccc(F)cc2)c2c(c1C)OC(C)([C@H]1CC[C@H](N(C)C)CC1)O2 (relative stereo) [Compound 10, 2-(trans-4-(dimethylamino)cyclohexyl)-7-(4-fluorophenyl)-2,4-dimethyl-N-((6-methyl-4-(methylthio)-2-oxo-1,2-dihydropyridin-3-yl)methyl)benzo[d][1,3]dioxole-5-carboxamide] | 30 to 70 | ≤ 30 | ≤ 30 | ≤ 30 | 30 to 70 | ≥ 70
98.9 | 82.9 | CSc1cc(C)[nH]c(=O)c1CNC(=O)c1cc(-c2ccsc2)c2c(c1C)OC(C)([C@H]1CC[C@H](N(C)C)CC1)O2 (relative stereo) [Compound 11, 2-(trans-4-(dimethylamino)cyclohexyl)-2,4-dimethyl-N-((6-methyl-4-(methylthio)-2-oxo-1,2-dihydropyridin-3-yl)methyl)-7-(thiophen-3-yl)benzo[d][1,3]dioxole-5-carboxamide] | 30 to 70 | 30 to 70 | ≤ 30 | ≤ 30 | 30 to 70 | ≥ 70
99.2 | 80.5 | COc1ccc(F)cc1-c1cc(C(=O)NCc2c(SC)cc(C)[nH]c2=O)c(C)c2c1OC(C)([C@H]1CC[C@H](N(C)C)CC1)O2 (relative stereo) [Compound 12, 2-(trans-4-(dimethylamino)cyclohexyl)-7-(5-fluoro-2-methoxyphenyl)-2,4-dimethyl-N-((6-methyl-4-(methylthio)-2-oxo-1,2-dihydropyridin-3-yl)methyl)benzo[d][1,3]dioxole-5-carboxamide] | 30 to 70 | ≤ 30 | ≤ 30 | ≤ 30 | 30 to 70 | 30 to 70
97.6 | 53.7 | CSc1cc(C)[nH]c(=O)c1CNC(=O)c1cc(-c2c(C)noc2C)c2c(c1C)OC(C)([C@H]1CC[C@H](N(C)C)CC1)O2 (relative stereo) [Compound 13, 2-(trans-4-(dimethylamino)cyclohexyl)-7-(3,5-dimethylisoxazol-4-yl)-2,4-dimethyl-N-((6-methyl-4-(methylthio)-2-oxo-1,2-dihydropyridin-3-yl)methyl)benzo[d][1,3]dioxole-5-carboxamide] | 30 to 70 | ≤ 30 | ≤ 30 | ≤ 30 | ≤ 30 | 30 to 70
97.6 | 86.4 | CSc1cc(C)[nH]c(=O)c1CNC(=O)c1cc(-c2ccc(F)nc2F)c2c(c1C)OC(C)([C@H]1CC[C@H](N(C)C)CC1)O2 (relative stereo) [Compound 14, 7-(2,6-difluoropyridin-3-yl)-2-(trans-4-(dimethylamino)cyclohexyl)-2,4-dimethyl-N-((6-methyl-4-(methylthio)-2-oxo-1,2-dihydropyridin-3-yl)methyl)benzo[d][1,3]dioxole-5-carboxamide] | 30 to 70 | ≤ 30 | ≤ 30 | ≤ 30 | 30 to 70 | ≥ 70
